Activity calls are given as the source filed them.
Assays:
Type in all cases: functional
Triticum aestivum [1] = assay: Growth inhibition of intact Triticum aestivum (wheat) seed assessed as appearance of distinct rootlets at 500 ppm after 4 days relative to wheat grains RL4137 germination
Triticum aestivum [2] = assay: Inhibition of intact Triticum aestivum (wheat) seed germination assessed as appearance of sprouts at 500 ppm after 4 days relative to wheat grains RL4137 germination
Triticum aestivum [3] = assay: Inhibition of intact Triticum aestivum (wheat) seed germination assessed as appearance of distinct rootlets at 500 ppm after 4 days relative to wheat grains RL4137 germination
Triticum aestivum [4] = assay: Growth inhibition of intact Triticum aestivum (wheat) seed assessed as appearance of sprouts at 500 ppm after 4 days relative to wheat grains RL4137 germination

CC1(C)CCCC2(C)OC(=O)C=C12 (racemic)
active: growth inhibition (GI) (Triticum aestivum [1]) | inhibition (Triticum aestivum [2]) | inhibition (Triticum aestivum [3]) | growth inhibition (GI) (Triticum aestivum [4])

C[C@H](O)c1ccccc1
active: growth inhibition (GI) (Triticum aestivum [1]) | inhibition (Triticum aestivum [2]) | inhibition (Triticum aestivum [3]) | growth inhibition (GI) (Triticum aestivum [4])

CC(O)c1ccccc1 (racemic)
active: growth inhibition (GI) (Triticum aestivum [1]) | inhibition (Triticum aestivum [2]) | inhibition (Triticum aestivum [3]) | growth inhibition (GI) (Triticum aestivum [4])

C[C@@H](O)c1ccccc1
active: growth inhibition (GI) (Triticum aestivum [1]) | inhibition (Triticum aestivum [2]) | inhibition (Triticum aestivum [3]) | growth inhibition (GI) (Triticum aestivum [4])

CC1(C)CCC[C@]2(C)OC(=O)C=C12
active: growth inhibition (GI) (Triticum aestivum [1]) | inhibition (Triticum aestivum [2]) | inhibition (Triticum aestivum [3]) | growth inhibition (GI) (Triticum aestivum [4])

CC1(C)CCC[C@@]2(C)OC(=O)C=C12
active: growth inhibition (GI) (Triticum aestivum [1]) | inhibition (Triticum aestivum [2]) | inhibition (Triticum aestivum [3]) | growth inhibition (GI) (Triticum aestivum [4])
